Publication PMC6934184, “Selective DNA-PKcs inhibition extends the therapeutic index of localized radiotherapy and chemotherapy” (The Journal of Clinical Investigation, 2019)

Molecular target: T1, PLK4 (Homo sapiens, UniProt O00444)
T1 construct: purchased Thermo Fisher Scientific (Life Technologies) SelectScreen
Assay: SelectScreen LanthaScreen
Type: binding
Conditions: read-out: % displacement
Procedure, shortened: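 SelectScreen broad panel; activity (Z'LYTE, Adapta) plus binding formats. ATP: Km app for CSF1R Z'LYTE; 10 for CAMK1 Adapta. Readout = % per kinase.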

T1 sequence (O00444 whole entry): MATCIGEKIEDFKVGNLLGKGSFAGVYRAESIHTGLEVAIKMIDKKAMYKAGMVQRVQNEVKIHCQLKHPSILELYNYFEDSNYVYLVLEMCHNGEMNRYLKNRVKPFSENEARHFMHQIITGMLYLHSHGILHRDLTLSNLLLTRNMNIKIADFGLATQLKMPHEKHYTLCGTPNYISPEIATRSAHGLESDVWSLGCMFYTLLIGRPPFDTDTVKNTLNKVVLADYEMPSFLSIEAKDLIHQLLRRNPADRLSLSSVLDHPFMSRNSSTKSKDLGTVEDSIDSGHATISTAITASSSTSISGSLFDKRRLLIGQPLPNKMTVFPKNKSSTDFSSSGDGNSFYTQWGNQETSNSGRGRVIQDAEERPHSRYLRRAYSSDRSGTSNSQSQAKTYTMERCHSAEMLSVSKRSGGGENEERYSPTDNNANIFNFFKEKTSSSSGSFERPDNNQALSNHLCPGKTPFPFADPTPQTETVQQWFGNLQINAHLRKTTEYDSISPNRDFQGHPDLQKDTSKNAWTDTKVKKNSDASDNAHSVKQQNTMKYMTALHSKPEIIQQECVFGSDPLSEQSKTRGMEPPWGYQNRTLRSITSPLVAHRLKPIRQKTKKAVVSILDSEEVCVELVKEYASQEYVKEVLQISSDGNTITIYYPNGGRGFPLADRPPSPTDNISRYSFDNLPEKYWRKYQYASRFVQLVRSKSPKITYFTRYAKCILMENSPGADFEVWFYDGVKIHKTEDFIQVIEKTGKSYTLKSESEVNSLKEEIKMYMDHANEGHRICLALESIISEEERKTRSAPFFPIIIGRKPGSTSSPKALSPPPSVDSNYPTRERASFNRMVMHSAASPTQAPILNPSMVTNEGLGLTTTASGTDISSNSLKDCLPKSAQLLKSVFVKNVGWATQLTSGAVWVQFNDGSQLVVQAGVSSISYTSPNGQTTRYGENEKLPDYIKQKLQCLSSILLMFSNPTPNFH

## CN(C(=O)CN1CCOCC1)c1ccc2sc3c(-c4cccc5c(=O)cc(N6CC7CCC(C6)O7)oc45)cccc3c2c1 [NU5455]
  inhibition at 1 µM: -2.8%
